# Test results published in patent US20060019971A1, “Treatment of cardiovascular disease with inhibitors of p38 kinase” (priority 2003, published 2006).
# “Also recorded” adds a separate entry of the source.
# Key:
# [1] = system: IL-6 secretion from HPBMCs; assay: IL-6 secretion from HPBMCs, ELISA; type: cell-based, human
# Description: FIG. 2(a) illustrates both the effect of CRP on IL-6 secretion from HPBMCs and its modulation by a p38 inhibitor. 8×10^5 HPBMCs were plated in 96-well. After 1 hour medium was removed and cells were incubated with or without 10 μg/ml of purified human CRP in serum-free RPMI 1640. In parallel experiments cells were treated with 10% FCS together with the CRP treatment. For the p38 antagonism, the p38 inhibitor was added to a final concentration of 1 μM in the parallel treatment. After 6 hours the conditioned medium was collected and IL-6 and IL-8 levels were determined by ELISA. FIG. 2(b) illustrates the effects of p38 inhibitor concentration on CRP induced IL-6 secretion from HPBMCs. 3×10^5 HPBMCs were plated in 96-well. After 1 hour medium was removed and cells were incubated with 10 μg/ml of purified human CRP plus 10% FCS in the presence of varying concentrations of p38 inhibitor. After 4 hours conditioned medium were collected and IL-6 level was determined by ELISA. FIG. 2(c) illustrates both the effect of CRP on IL-6 gene expressions in HPBMCs and its modulation by p38 inhibitor. 5×10^6 HPBMCs were plated in 6-well. After 1 hour medium was removed and cells were treated with vehicle or 1 μM p38 inhibitor in RPMI 1640 medium. After 1 hour cells were stimulated with 10% FCS only or 10 μg/ml CRP plus 10% FCS. After 6 hours RNA was extracted from the cells and IL-6 expression level was determined by real-time PCR as described in Experimental section.
# Cryopreserved human peripheral blood monocytes (HPBMCs, from Biowitker, Walkersvill, Md.) were thawed and washed twice in RPMI 1640. Cells were plated in tissue culture plates and incubated in 5% CO2 at 37 C. After 1 hr media were removed and cells were treated with various treatments. After 2 to 20 hours conditioned media and/or cell lysates were collected for the analyses of secreted cytokines, protein or mRNA expression. 10 μg/ml of purified human CRP (Calbiochem, San Diego, Calif.) was used in most of the treatments. In some experiments fetal calf serum (FCS from ATCC) was added to a final concentration of 10% together with CRP. In the examples provided herein, including those assessing the effects of p38 antagonism, cells were pre-treated with SD, a p38 small molecule inhibitor (Compound 162 in Table A) for 1 hour prior to CRP treatment as described above. In a parallel series of experiments, the effect of vehicle (DMSO) was tested. For TaqMan analyses of various gene expression cells were lysed in ice-cold RLT lysis buffer (Qiagen, Valencia, Calif.) and the lysates were kept in −80° C. until the analyses. For Western analyses cells were lysed in RIPA buffer (50 mM Tris-HCl, pH 7.5, 150 mM NaCl, 1 mM EDTA, 1% NP-40) containing phosphatase inhibitor cocktails and protease inhibitor cocktail (Promega, Madison, Wis.).
# Conditioned media from the treated cells were collected (6 to 20 hrs), and the level of secreted interleukin 6 (IL-6), interleukin 1 beta (IL-1 β), tumor necrosis factor alpha (TNFα), and interleukin 8 (IL-8) was determined by ELISA according to the manufacturer's instruction (Biosource International, Camarillo, Calif.). All determinations were performed in duplicates.
# As part of the studies described herein, an investigation was done as to whether the CRP invoked IL-6 secretion from HPBMCs is dependent on p38 MAP kinase signaling. […] The effect of addition of 10% fetal calf serum (FCS) during the CRP treatment on IL-6 secretion was also assessed. […]
# COX-2 mRNA in HPBMCs = assay: COX-2 gene expression in HPBMCs, real-time PCR; type: cell-based, human; details: 6 hours
# Description: 5×10^6 HPBMCs were plated in 6-well. After 1 hour medium was removed and cells were treated with vehicle or 1 μM p38 inhibitor in RPMI 1640 medium. After 1 hour cells were stimulated with 10% FCS only or 10 μg/ml CRP plus 10% FCS. After 6 hours RNA was extracted from the cells and COX-2 gene expression level was determined by real-time PCR as described in the Experimental section.
# Cryopreserved human peripheral blood monocytes (HPBMCs, from Biowitker, Walkersvill, Md.) were thawed and washed twice in RPMI 1640. Cells were plated in tissue culture plates and incubated in 5% CO2 at 37 C. After 1 hr media were removed and cells were treated with various treatments. After 2 to 20 hours conditioned media and/or cell lysates were collected for the analyses of secreted cytokines, protein or mRNA expression. […]
# RNA was extracted from the cells using Qiagen RNA extraction kit according to the manufacturer's instruction. The expression of pro-inflammatory genes IL-1β, IL-6, IL-8, TNFα, COX-2, ET-1, TF were assessed by real-time PCR. […]
# Real-time RT-PCR was performed in a two-step manner. cDNA synthesis and real-time detection were carried out in a PTC-100™ Thermal Cycler (MJ Research Inc, Waltham, Mass.) and an ABI Prism™ 7700 Sequence Detection System (Applied Biosystems, Foster City, Calif.), respectively. […] Relative quantitation of gene expression was performed using the relative standard curve method. […]
structure (smiles),measurement,setting,value
C[C@@H]1CN(Cc2ccc(F)cc2)[C@@H](C)CN1C(=O)c1cc2c(C(=O)C(=O)N(C)C)c[nH]c2cc1Cl [Compound 162],inhibition of CRP-induced IL-6 secretion,"[1]; 1 μM SD, 10 μg/ml CRP, no FCS, 6 hours",almost completely attenuated
same,inhibition of IL-6 secretion induced by CRP plus 10% FCS,"[1]; 1 μM SD, 6 hours",dramatically inhibited
same,inhibition of basal IL-6 secretion,"[1]; 1 μM SD, HPBMCs, 6 hours",almost completely attenuated
same,inhibition of IL-6 secretion invoked by CRP in the presence of FCS,"[1]; 3 μM SD, 4 hours",almost completely inhibited
same,IC50,"[1]; Homo sapiens, CRP 10 μg/ml in the presence of 10% FCS, 4 hours, read-out: concentration effective to inhibit 50% of IL-6 secretion",< 0.05 µM
same,inhibition of CRP-invoked COX-2 mRNA expression,"COX-2 mRNA in HPBMCs; 1 μM SD pre-treatment, listed as SD",almost completely blocked; also recorded: almost completely inhibited
same,inhibition of FCS induced COX-2 mRNA,COX-2 mRNA in HPBMCs; 1 μM SD,completely inhibited
